Results as given in patent publication US5840720A (priority 1995, dated 1998).
Several values for one entry are separate records, joined by “and”; a condition that tells them apart may be missing. Identical values can stand only once. Like-named read-outs stand apart in the source and are kept apart here. Where no end group is shown, it is not given here.

Tests used:
capsaicin = details: cited from earlier work
[1] = test system: isolated guinea-pig bronchi; design: species or system guinea pig (Hartley)
[2] = test system: isolated guinea-pig trachea; assay: Capsaicin-induced contractility of isolated guinea-pig trachea; design: species or system guinea pig (Hartley); details: 0.01-30 μM capsaicin, cumulative
Source text: Each point represents mean±S.E.M of six experiments.
A. Antagonist activity of compounds on capsaicin-induced contractility of isolated guinea-pig bronchi and trachea
Adult guinea pigs (Hartley), weighing 350-450 g, were sacrificed by a blow on the head followed by cervical dislocation. The bronchi and trachea were removed from the lungs, cleaned of all parenchyma, and immediately placed in Kreb's solution. As the method reported by M. G. Belvisi et al. (Eur. J. Pharmacol. 215, 341-4, 1992).

[3] = test system: isolated guinea-pig right and left atria
[4] = test system: isolated guinea-pig ileum; assay: Capsaicin, substance P and carbachol-induced contractility of isolated guinea-pig ileum; details: for contraction of ileum smooth muscle: carbachol as control, substance P 0.1 μM; for inhibition of substance P-induced ileum contraction: SP 0.1 μM
Procedure: FIG. 4 The effects of CAPBZ on response of guinea-pig ileum to capsaicin (10 μM), substance P (SP, 0.1 μM), and carbachol (0.5 μM). […] Thirty minutes following washout, responses to SP, and carbachol were recovered.
C. Antagonist activity of compound on capsaicin and substance Pinduced contractilities of isolated guinea-pig ileum
The abdominal incisions for the guinea pig were made and ilea were isolated and placed in cold (4° C.) Tyrode's solution. 2.5 cm segments of ileum were then trimmed and suspended in an organ bath containing 20 ml low calcium Kreb's solution, aerated with 95% O2 and 5% CO2 at 37° C. As the method reported by M. Takaki et al. (Eur. J. Pharmacol. 174, 5762, 1989).
This effect of capsaicin or substance P was inhibited in the presence of 1.0-100 μM of compound 1 (CAPBZ), concentration-dependently.

[5] = test system: isolated guinea-pig atria; details: cited from earlier work; for action potential duration: guinea pig atria
neuronal sodium currents = details: cited from earlier work
[6] = test system: neuronal calcium currents; details: cited from earlier work
airway = details: inhalation; cited from earlier work
[7] = test system: capsaicin-induced blood pressure changes; format: in vivo, Wistar rats
[8] = test system: capsaicin-induced heart rate changes; format: in vivo, Wistar rats
[9] = test system: capsaicin-induced hypotensive reflex; format: in vivo, rats
guinea-pig bronchi = details: cited from earlier work
[10] = test system: calcium channel in the isolated guinea-pig atrium; assay: CaCl2-induced chronotropic and inotropic effects in isolated guinea-pig atria; details: for inhibition of calcium-induced chronotropic and inotropic effects: pretreatment, increasing CaCl2, right and left atria
Procedure: Each point represents the mean of six experiments; vertical bars represent the S.E.M.
FIGS. 6A-6B Effect of CAPCNC6 (10 μM) on the positive chronotropic (spontaneously beating right atrium) and inotropic (electrically-driven left atria) effect of increasing Ca^2+ concentrations in guinea pigs. Beating rate and tension were expressed as % of control values. Data represents the mean±S.E.M. (n=7).
D. Effects of compound on the calcium channel in the isolated guinea-pig atrium

[11] = test system: isolated guinea-pig right and left atrium; assay: hCGRP-induced beating and tension of isolated guinea-pig atria
[12] = capsaicin 0.01-30 μM cumulative, compound 1 and 3 at 1.0-100 μM, capsazepine 1-10 μM
[13] = A phase, 15 min i.v. infusion 100 μg/kg/min, capsaicin 10 μg/kg i.v., one compartment model
[14] = C phase, 15 min i.v. infusion 100 μg/kg/min, capsaicin 10 μg/kg i.v., one compartment model
[15] = fast phase, 15 min infusion, one compartment model
[16] = slow phase, 15 min infusion, one compartment model
[17] = pretreatment i.t. 1 nmole, capsaicin i.a. 10 μg/kg, mean±S.E.M., n=6, control (None) -19.6 ± 1.9
[18] = 0.1-10 μM compound, 1.0 μM capsaicin, concentration-dependent

## CCCCCCCCC(=O)NCc1ccc(OCC(O)CO)c(OC)c1 (centres unmarked) [glyceryl nonivamide]
capsaicin
  capsaicin antagonism / agonism: selective capsaicin agonist

## COc1cc(CNC(=O)CCCC/C=C/C(C)C)ccc1O [Capsaicin]
[1]; 0.01-30 μM capsaicin, cumulative
  contraction of isolated guinea-pig bronchi: concentration-dependent increase in contraction
[2]
  contraction of isolated guinea-pig trachea: concentration-dependent increase in contraction
[3]
  inotropic and chronotropic effect: positive inotropic and chronotropic response
[3]; listed as capsaicin
  inotropic and chronotropic effect: positive inotropic and chronotropic effect
[4]; capsaicin 10 μM
  contraction of ileum smooth muscle: weaker contractions
[5]
  action potential duration: prolong action potential duration
[5]; isolated guinea-pig atria
  chronotropic and inotropic effects: potent positive chronotropic and inotropic effects
Neuronal sodium currents
  inhibition of neuronal sodium currents: inhibit neuronal sodium currents
[6]
  inhibition of neuronal calcium currents: inhibit neuronal calcium currents
airway
  airway resistance: increase airway resistance and leads to bronchoconstriction

## Oc1cc2c(cc1O)CN(C(=S)NCCc1ccc(Cl)cc1)CCC2 [Capsazepine, reference compound]
[1]; [12]
  shift of capsaicin-induced contraction in bronchi: shifted rightward
[7]; A effect
  efficacy order of antagonist activities, A effect: capsazepine>NVABZ>NVABI
[7]; [13]
  Recovery half-life (t1/2) of capsaicin-induced blood pressure changes, A phase: 2.73 min
[7]; B effect
  efficacy order of antagonist activities, B effect: NVABI>capsazepine>NVABZ
[7]; 15 min i.v. infusion 100 μg/kg/min, capsaicin 10 μg/kg i.v., one compartment model
  Recovery half-life (t1/2) of capsaicin-induced blood pressure changes, B phase: 2.89 min
[7]; C effect
  efficacy order of antagonist activities, C effect: capsazepine>NVABI>NVABZ
[7]; [14]
  Recovery half-life (t1/2) of capsaicin-induced blood pressure changes, C phase: 3.78 min
[7]; rat, in vivo
  duration order of antagonist activities: NVABZ>NVABI>capsazepine
[7]; saline infusion after 100 μg/kg/min infusion
  recovery of antagonist activity to basal level: recovered to basal level by saline infusion for 30, 45, and 60 minutes gradually
[8]; [15]
  Recovery half-life (t1/2) of capsaicin-induced heart rate changes, fast phase: 1.36 min
[8]; [16]
  Recovery half-life (t1/2) of capsaicin-induced heart rate changes, slow phase: 3/52
[9]; [17]
  depressor reflex response: capsaicin-induced blood pressure changes after pretreatment: 25.8 ± 3.0
guinea-pig bronchi
  inhibition of contractile response evoked by capsaicin or electrical field stimulation: effective in inhibiting the contractile response
capsaicin
  capsaicin antagonism / agonism: competitive capsaicin antagonist

## [Ca+2].[Cl-].[Cl-] [CaCl2, reference compound]
[10]; cumulative CaCl2, electrically driven left atrium
  inotropic effect: positive inotropic effect
[10]; cumulative CaCl2, spontaneously beating right atrium
  chronotropic effect: positive chronotropic effect

## C[N+](C)(C)CCOC(N)=O [carbachol, reference compound]
[4]; capsaicin 10 μM
  contraction of ileum smooth muscle: maximum contraction

## substance P: SP (substance P) (RPKPQQFFGLM; ends and bridges not checked; UniProt P20366 58-68, looked up) [reference compound]
[4]; capsaicin 10 μM
  contraction of ileum smooth muscle: weaker contractions

## CCCCCCCCC(=O)NCc1cc2c(c(OC)c1)OCN(CCCCCC)C2 [Compound 6, N-[hexylamino-(4-oxymethene, 5-methylene)-3-methoxybenzyl] nonanamide]
[3]; [18]
  inhibition of capsaicin-induced positive inotropic and chronotropic effect: significantly inhibited
[10]
  inhibition of calcium-induced chronotropic and inotropic effects: could inhibit these calcium effects

## N[p-ethylketone-phenylamino-(4-oxymethylene, 5-methylene)-3-methoxybenzyl] nonamide [Compound 12]
[3]; [18]
  inhibition of capsaicin-induced positive inotropic and chronotropic effect: significantly inhibited
[7]; [13]
  Recovery half-life (t1/2) of capsaicin-induced blood pressure changes, A phase: 4.30 min
[7]; 15 min i.v. infusion 100 μg/kg/min, capsaicin 10 μg/kg i.v., one compartment model, listed as NVADA
  Recovery half-life (t1/2) of capsaicin-induced blood pressure changes, B phase: 9.00 min and 9.01 min
[7]; [14]
  Recovery half-life (t1/2) of capsaicin-induced blood pressure changes, C phase: 4.49 min
[8]; [15]
  Recovery half-life (t1/2) of capsaicin-induced heart rate changes, fast phase: 5.33 min
[8]; [16]
  Recovery half-life (t1/2) of capsaicin-induced heart rate changes, slow phase: 6.00 min
[9]; [17]
  depressor reflex response: capsaicin-induced blood pressure changes after pretreatment: -10.6 ± 2.5

## [N-Allylamino-(4-oxymethylene, 5-methylene)-3-methoxybenzyl] nonanamide [Compound 3]
[1]
  inhibitory effect in bronchi compared with trachea: more effective in bronchi than in trachea
  shift of capsaicin-induced contraction in bronchi: shifted rightward

## N-[(4-hydroxy, 5-diethylaminomethyl)-3-methyoxybenzyl] nonamide [Compound 11]
[3]
  effect of pretreatment on capsaicin-induced inotropic and chronotropic response: decreased the effect of capsaicin
  inhibition of capsaicin-induced positive inotropic and chronotropic effect: significantly inhibited
[7]; rat, in vivo
  duration order of antagonist activities: NVABZ>NVABI>capsazepine
  efficacy order of antagonist activities, A effect: capsazepine>NVABZ>NVABI
  efficacy order of antagonist activities, B effect: NVABI>capsazepine>NVABZ
  efficacy order of antagonist activities, C effect: capsazepine>NVABI>NVABZ
  recovery of antagonist activity to basal level: recovered to basal level by saline infusion for 30, 45, and 60 minutes gradually
[7]; rat, in vivo, iv
  Recovery half-life (t1/2) of capsaicin-induced blood pressure changes, A phase: 10.67 min
  Recovery half-life (t1/2) of capsaicin-induced blood pressure changes, C phase: 21.75 min
[8]; rat, in vivo
  Recovery half-life (t1/2) of capsaicin-induced heart rate changes, fast phase: 11.95 min
  Recovery half-life (t1/2) of capsaicin-induced heart rate changes, slow phase: 15.75 min
[9]; rat, in vivo
  depressor reflex response: capsaicin-induced blood pressure changes after pretreatment: 19.2 ± 2.5

## CCCCCCCCC(=O)NCc1cc2c(c(OC)c1)OCN(c1ccc(C(=O)OCC)cc1)C2 [Compound 1, N[P-(carboxylic acid ethyl ester)-phenylamine-(4-oxymethylene, 5-methylene)-3-methoxybenzyl] nonanamide]
[1]; against capsaicin-induced contraction
  inhibitory effect in bronchi compared with trachea: more effective in bronchi than in trachea
[1]; [12]
  shift of capsaicin-induced contraction in bronchi: shifted rightward
[3]; [18]
  inhibition of capsaicin-induced positive inotropic and chronotropic effect: significantly inhibited
[3]; pretreatment for 30 min, capsaicin 1 μM, FIGS. 3A-3D
  effect of pretreatment on capsaicin-induced inotropic and chronotropic response: decreased the effect of capsaicin
[4]; compound 1.0-100 μM
  inhibition of substance P-induced ileum contraction: inhibited
[4]; compound 1.0-100 μM, listed as CAPBZ
  inhibition of substance P-induced ileum contraction: concentration-dependently reduction of response
[4]; carbachol 0.5 μM, FIG. 4
  reduction of ileum response to carbachol: concentration-dependently reduction of response
[4]; compound 1.0-100 μM, capsaicin 10 μM, concentration-dependent
  inhibition of capsaicin-induced ileum contraction: inhibited
[4]; thirty minutes following washout
  recovery of responses to SP and carbachol after washout: recovered
[10]
  inhibition of calcium-induced chronotropic and inotropic effects: could inhibit these calcium effects
[11]; after pretreatment with CGRP for 30 minutes
  change of CGRP-induced contractilities after CGRP pretreatment: could not change CGRP-induced contractilities
[11]; right and electrically driven left atrium, FIG. 7 CAPBZ 50 μM
  inhibition of hCGRP-induced beating and tension: not inhibited

## CGRP
[5]
  action potential duration: prolong action potential duration
